These results are taken from paper PMC8298375 (Naunyn-Schmiedeberg's Archives of Pharmacology, 2021).

Read-outs that look alike come from different tables or passages of the source.

Common to all, as to format: in vivo, Wistar rats
Data set [1] concerns ICV colchicine-induced dementia rats. Nature of the data set: Passive avoidance test, ICV colchicine-induced dementia (chronic model). Conditions: for Retention test, Latency time, 1st / Retention test, No. of crossings, 1st / Retention test, Time spent in darker chamber, 1st: 1st retention test, before colchicine administration; for Retention test, Latency time, 2nd / Retention test, No. of crossings, 2nd / Retention test, Time spent in darker chamber, 2nd: 2nd retention test, day 17; for Retention test, No. of crossings, 3rd / Retention test, Latency time, 3rd / Retention test, Time spent in darker chamber, 3rd: 3rd retention test, day 23; for Acquisition test, 2nd day: colchicine model. As to the method: (§1) In the chronic model, the rats were trained for MWM and PAT tasks for the first 4 days followed by intracerebroventricular (i.c.v.) administration of colchicine on day 6. After establishing dementia on day 10 of the colchicine administration, the drug treatment was initiated from day 11 to 24. The effects of different drug treatments on dementia were assessed on days 14 and 21. On these particular days, the swim test was performed 15 min after the administration of different treatments and escape latencies; residence time and peripheral swim time were recorded (Nampoothiri [2017]). The retention trials for PAT on day 17 and 23 were performed on days 17 and 23, 15 min after the administration of the drug.
On the 6th day, surgery was performed as described (Bokare et al. [2018]). Rat was anesthetized with sodium pentobarbital (45 mg/kg, i.p.) and positioned in stereotaxic apparatus. The head was positioned in a frame, and a midline sagittal incision was made in the scalp. Two holes were drilled through the skull at coordinates (0.8 mm posterior to bregma, 1.8 mm lateral to the sagittal suture, and 3.6 mm beneath the cortical surface) to place the injection cannula. Rats were intracerebroventricularly infused with either artificial cerebrospinal fluid (ACSF; in mM: 147 NaCl, 2.9 KCl, 1.6 MgCl2, 1.7 CaCl2, and 2.2 dextrose) or 15 µg of colchicine in 5 µL ACSF using a Hamilton microsyringe positioned in the injection cannula. To promote back diffusion, the microsyringe was left in place for 2 min following injection. The scalp was then closed with a suture. After surgery, all animals received gentamicin (5 mg/kg, i.p.) to prevent sepsis. Special care was taken during the postoperative period to provide food and water inside the cage of the rat. In sham-operated rats, surgery was identical except for injection of the solution.
The passive avoidance apparatus consists of a larger illuminated compartment and a smaller dark compartment. Each consists of a square box, with a floor grid of 50 × 50 cm and wooden walls of 35-cm height in larger compartment. Larger box was illuminated by 15 W Philips CFL lamp. A smaller dark compartment of 15 × 15 cm with an electrified floor is connected to a constant current stimulator. An opening 6 × 6 cm in between the two compartments was closed using a transparent plexiglass sliding door. The test procedure was carried out in three phases, exploration, learning, and retention (Praveenkumar [2019]).
First day, the animal was placed in the center of the illuminated larger compartment facing away from the entrance to the small darker compartment and allowed to explore the apparatus, i.e., both compartments for 3 min. Total time spent in the larger and smaller compartments and the number of crossings (from larger to smaller compartments and vice versa; a measure of exploratory behavior) were noted. On the second day, animal was placed in the illuminated larger compartment facing away from the entrance to the darker compartment. Once the animal entered the darker compartment, the entrance to the larger compartment was closed, and three strong electric foot shocks (50 Hz, 0.5 mA, 2 s) with 10-s intervals were applied. On the third day, rats were placed in the illuminated larger compartment and allowed to explore both the compartments for 3 min. The parameters assessed are latency time to enter into darker compartment, time spent in the darker and brighter compartments, and the number of crossings between the compartments.

A short description of data set [2]: Pharmacokinetic study in scopolamine-induced amnesic rats (plasma). The settings on record: for Absolute F: absolute bioavailability; for Cl_F_obs: clearance; for DN Cmax: dose-normalised Cmax; for Vz_F_obs: volume of distribution. As to the method:
Samples were then centrifuged at 10,000 rpm for 5 min, and plasma was stored at − 70 °C until analysis.
Briefly, to an aliquot of 100 µL of rat plasma, 10 µL of IS (1 µg/mL) was added and vortexed for 30 s. Then, 1 mL of TBME tertiary methyl butyl ether) was added and vortexed for 10 min, thereafter centrifuged at 10,000 rpm for 5 min. From the supernatant, 0.9 mL of organic solvent was aspirated and evaporated in a turbo evaporator (Zymark, Hopkinton, MA, USA) at 50 ± 2 °C under the stream of nitrogen. The dried residue was reconstituted with 150 µL of mobile phase, and 50 µL was injected for the HPLC analysis. A full validation according to the US-FDA guidelines was performed in rat plasma. Plasma samples were analyzed by previously validated HPLC with fluorescence detection method (Arumugam [2011]).
HPLC analysis was carried out on Shimadzu LC-20AD Prominence (Shimadzu Corporation, Kyoto, Japan) equipped with LC-20AD pump, RF-10A-XL fluorescence detector, column oven (CTO-10AS VP), autosampler SIL-20AC HT, and LC solution version 1.24 SP1. The column oven temperature was maintained at 25 °C. The chromatographic separation was achieved by Intersil, ODS-3 V, C18 (250 × 4.6 mm, 5 µm) column (GL Sciences Inc., Japan). Isocratic elution was performed with ammonium acetate buffer (20 mM, pH 4.5) and acetonitrile 74:26 (v/v) as mobile phase. The flow rate was maintained at 1 mL/min, and the injection volume was 50 µL. Fluorimetric detection was used, and excitation and emission wavelength were 220 nm and 293 nm, respectively. The sensitivity of the detector was “medium”, and the response kept at 3. Venlafaxine (IS) was prepared separately in methanol to yield primary standard solutions with a concentration of 1 mg/mL.
The pharmacokinetic parameters were calculated using non-compartmental analysis, PK solution 2.1software (Summit Research Services, Montrose, Colorado, USA). The area under the curve (AUC) from zero to infinity is calculated using the trapezoidal method. The terminal elimination rate constant (β) was obtained by plotting log-linear concentration versus time; the corresponding half-life (t1/2β) was calculated by 0.693/β. […] The clearance (CL) and volume of distribution (Vd) were calculated as follows: CL=Dose/AUC0-∞,Vd(apparent)=CL/β

Data set [3] deals with ICV colchicine-induced dementia rats. Nature of the data set: Locomotor activity (photoactometer), colchicine-induced dementia. Conditions: colchicine model, Mean ± SEM, photo beam counts for 5 min. The protocol: as §1
On the 6th day, surgery was performed as described (Bokare et al. [2018]). Rat was anesthetized with sodium pentobarbital (45 mg/kg, i.p.) and positioned in stereotaxic apparatus. The head was positioned in a frame, and a midline sagittal incision was made in the scalp. […]
Locomotor activity was assessed in animals using a digital photoactometer (INCO, India) which contains a cage that is 30-cm long and 30-cm deep with a wire mesh at the bottom. […] Then, the ambulatory movements were recorded for 5 min and expressed in terms of total photo beam counts for 5 min per animal.

Where [4] appears, read: Wistar, rat, oral (ORSM), other: intranasal (INRSM).

What is called MRT is the average time that molecules of a dose stay in the body. As usually defined, the Cmax is the highest concentration seen after dosing. In general, Tmax refers to the time from dosing to the highest level. As usually defined, the half-life is how long it takes for the measured level to halve. High values mean slow decline, low ones rapid decline. Broadly, the AUC(0-inf) is the area under the concentration-time curve extrapolated to infinity. In the case of `CCN(C)C(=O)Oc1cccc([C@H](C)N(C)C)c1` [INRSM, rivastigmine], in data set [1] (listed as COL + INRSM), the “Retention test, Latency time, 1st” value is 122.3 ± 13.32 s; the “Retention test, No. of crossings, 1st” value is recorded as 2.67±0.56; the “Retention test, Time spent in darker chamber, 1st” value amounted to 49.5 ± 12.13 s; the “Retention test, Latency time, 2nd” value was 101.8 ± 10.46 s. Moreover, in data set [1] (listed as COL + INRSM), the “Retention test, No. of crossings, 2nd” value worked out at 3.50±0.56; the “Retention test, Time spent in darker chamber, 2nd” value is 58.67 ± 10.25 s; the “Retention test, Latency time, 3rd” value was 77.17 ± 11.18 s; the “Retention test, Time spent in darker chamber, 3rd” value worked out at 67.17 ± 12.43 s. For the same molecule, in data set [1] (listed as COL + INRSM), the “Acquisition test, 2nd day” value came out at 11.07 ± 2.195. The “Retention test, No. of crossings, 3rd” value in data set [1] was found to be 3.17±0.48. Further, in data set [2], the MRT stood at 32.12 ± 16.46 min, the “Absolute F” value is given as 65.44 ± 14.57%, the Cl_F_obs stood at 100.95 ± 36.47 mL/min and the “DN Cmax” value stood at 497.23 ± 235.52 ng/mL. This molecule returned a Vz_F_obs in data set [2] of 4.45 ± 1.72 L. The molecule further displayed a Cmax in data set [2] (Wistar, rat, inhaled or intranasal, 2 mg/kg) of 994 ± 471 ng/mL. Moreover, in data set [2] (setting [4]), the time to peak (Tmax) was 5 min, the half-life is 30.5 ± 10.8 min and the k el is 0.000378 s⁻¹. In addition, in data set [2] (Wistar, rat, other: intranasal, 2 mg/kg), the AUC(0-inf) was 330 ng·h/mL. The Score on actophotometer in data set [3] (listed as COL + INRSM) was 265.66 ± 17.95.

As for `CCN(C)C(=O)Oc1cccc([C@H](C)N(C)C)c1` [ORSM, rivastigmine], in data set [1] (listed as COL + ORSM), the “Retention test, Latency time, 1st” value was 127.8 ± 21.13 s; the “Retention test, No. of crossings, 1st” value is on record as 1.83±0.54; the “Retention test, Time spent in darker chamber, 1st” value was found to be 38.5 ± 16.47 s; the “Retention test, Latency time, 2nd” value worked out at 90.55 ± 22.83 s. In data set [1] (listed as COL + ORSM), the “Retention test, No. of crossings, 2nd” value was 3.00±0.63; the “Retention test, Time spent in darker chamber, 2nd” value was found to be 68 ± 23.51 s; the “Retention test, Latency time, 3rd” value worked out at 48.83 ± 8.28 s; the “Retention test, Time spent in darker chamber, 3rd” value stood at 81.33 ± 10.56 s. In data set [1] (listed as COL + ORSM), the “Acquisition test, 2nd day” value is 8.91 ± 2.049. The “Retention test, No. of crossings, 3rd” value in data set [1] is 3.17±0.48. For the same molecule, the mean residence time (MRT) in data set [2] (Wistar, rat, oral (ORSM), other: intranasal (INRSM), read-out: MRT (converted)) was 27.6 min. Besides, the clearance in data set [2] (Wistar, rat, oral, 2.5 mg/kg, read-out: clearance rate) came out at 1500 ± 760 mL/min. The Vd in data set [2] (Wistar, rat, oral, 2.5 mg/kg, read-out: volume of distribution) turned out to be 29.2 ± 14.3 L/kg. For the same molecule, in data set [2] (Wistar, rat, po), the time to peak (Tmax) is 15 min, the half-life is 13.5 ± 5.79 min and the k el is 0.000857 s⁻¹. Moreover, in data set [2] (Wistar, rat, po, 2.5 mg/kg), the total exposure AUC(0-inf) was 27.7 ng·h/mL and the Cmax was determined as 56.3 ± 27.1 ng/mL. For the same molecule, in data set [2], the “Absolute F” value was determined as 4.39 ± 1.82%, the Cl_F_obs is reported as 1502.59 ± 763.25 mL/min, the “DN Cmax” value is 22.51 ± 10.82 ng/mL and the Vz_F_obs was 29.23 ± 14.35 L. Besides, the “Absolute F” value in data set [2] (listed as oral rivastigmine) amounted to 4.39 ± 1.82%. For the same molecule, the Score on actophotometer in data set [3] (listed as COL + ORSM) came out at 240.00 ± 19.54.
